Reference: patent publication US10377781B2, “Alkylidene phosphonate esters as p-glycoprotein inducers” (Council of Scientific & Industrial Research, priority 2014, dated 2019)
≈ marks a conversion by molar mass, not a printed value. Entries after “also recorded” stand apart in the source; their conditions may differ. Read-outs that look alike come from different tables or passages of the source.

Assays:
[1] = Thermodynamic equilibrium solubility; assay type: physicochemical; details: for solubility: 25 °C, thermodynamic from solid
Procedure: The compounds were first dissolved in methanol to prepare stock solutions (100 and 1000 μg/mL). Different concentrations of stock solutions were pipetted into the 96-well plates and the solvent was evaporated to ensure that solid drug was present in the beginning of the experiment. […] The plates were kept overnight for equilibration of drug in medium. Later, the plates were centrifuged at 3000 rpm for 15 min (Jouan centrifuge BR4i). Supernatant (50 μl) was pipetted into UV 96-well plates (Corning® 96 Well Clear Flat Bottom UV-Transparent Microplate) for analyses with plate reader (SpectraMax Plus384) at λmax of 350 nm. The analyses were performed in triplicate for each compound. The solubility curve of concentration (ng/mL) vs absorbance was plotted to find out saturation point and the corresponding concentration was noted.

HMG-Co A reductase = details: HepG2 (hepatocellular carcinoma) cells; read-out: IC50, reduction of HMG-Co A reductase activity; cited from earlier work
CYP3A4 = details: rat hepatocytes; cited from earlier work
mouse PXR = biological target: T1, mouse PXR (Mus musculus, UniProt O54915); details: cited from earlier work
T1 sequence (O54915 1-431): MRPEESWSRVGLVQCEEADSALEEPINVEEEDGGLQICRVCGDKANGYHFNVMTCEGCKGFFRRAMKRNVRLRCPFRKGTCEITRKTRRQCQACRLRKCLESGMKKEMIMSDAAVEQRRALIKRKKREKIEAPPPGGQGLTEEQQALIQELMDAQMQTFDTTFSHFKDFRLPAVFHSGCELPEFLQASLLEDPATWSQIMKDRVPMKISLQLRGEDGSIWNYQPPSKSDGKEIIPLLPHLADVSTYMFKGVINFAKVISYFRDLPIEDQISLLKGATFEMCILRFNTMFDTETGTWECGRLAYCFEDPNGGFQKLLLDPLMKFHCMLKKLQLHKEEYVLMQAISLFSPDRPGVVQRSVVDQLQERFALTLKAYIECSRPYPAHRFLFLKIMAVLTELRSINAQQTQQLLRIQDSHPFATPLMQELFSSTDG

rat PXR = biological target: T2, rat PXR (Rattus norvegicus, UniProt Q9R1A7); details: cited from earlier work
T2 sequence (Q9R1A7 1-431): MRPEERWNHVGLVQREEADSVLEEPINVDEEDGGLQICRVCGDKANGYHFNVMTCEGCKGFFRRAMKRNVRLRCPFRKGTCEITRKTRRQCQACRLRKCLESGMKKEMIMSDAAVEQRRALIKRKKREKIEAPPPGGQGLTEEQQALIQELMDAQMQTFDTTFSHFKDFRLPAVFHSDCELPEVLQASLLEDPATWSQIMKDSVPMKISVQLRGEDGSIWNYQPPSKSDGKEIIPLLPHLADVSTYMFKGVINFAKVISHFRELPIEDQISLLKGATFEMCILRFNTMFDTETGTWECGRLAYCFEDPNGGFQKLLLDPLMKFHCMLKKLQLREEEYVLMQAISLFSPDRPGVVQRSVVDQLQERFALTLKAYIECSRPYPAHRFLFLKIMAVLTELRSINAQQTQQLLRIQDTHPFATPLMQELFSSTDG

[2] = tested on: P-glycoprotein (Pgp) in LS-180 cells; experiment: Pgp-induction assay, rhodamine123 (Rh123) cell exclusion method; assay type: cell-based; details: for EC50: LS180 cells treated 48 h, Rh123 fluorescence vs concentration
Procedure: All synthesized compounds were screened for their ability to induce Pgp using rhodamine123 (Rh123) cell exclusion method. In this method, the Pgp function was evaluated in terms of rhodamine 123 (Rh123) accumulations and efflux. Briefly, the protocol used is as follows: Colorectal LS-180 cells [obtained from ECACC (European Collection of Cell Cultures) catalogue number: 87021202; passage number 52] were seeded at a density of 2×10^4 per well of 96 well plate and were allowed to grow for next 24 h. Cells were further incubated with the test compounds, and were diluted to a final concentration of 100 nM and rifampicin (standard) to a final concentration of 10 μM in complete media for 48 h. The final concentration of DMSO was kept at 0.1%. Drugs were removed and cells were incubated with HANKS buffer for 40 minutes before further incubation with HANKS buffer (containing 10 μM of Rh123 as a Pgp substrate) for 90 minutes. At the end of Rh123 treatment cells were washed four times with cold PBS followed by cell lysis for 1 h by using 200 μl of lysis buffer (0.1% Triton X-100 and 0.2 N NaOH). A total of 100 μl of lysate was used for reading fluorescence of Rh123 at 485 nm/529 nm. Samples were normalized by dividing fluorescence of each sample with total protein present in the lysate. For EC50 determination, different concentrations of compound were used to treat LS180 cells for 48 h. The EC50 value was determined by plotting fluoroscence of Rh123 against concentration of compound.

rabbit PXR = biological target: T3, rabbit PXR (Oryctolagus cuniculus, UniProt Q9TU02); details: read-out: EC50, activation of rabbit PXR; cited from earlier work
T3 sequence (Q9TU02 1-411): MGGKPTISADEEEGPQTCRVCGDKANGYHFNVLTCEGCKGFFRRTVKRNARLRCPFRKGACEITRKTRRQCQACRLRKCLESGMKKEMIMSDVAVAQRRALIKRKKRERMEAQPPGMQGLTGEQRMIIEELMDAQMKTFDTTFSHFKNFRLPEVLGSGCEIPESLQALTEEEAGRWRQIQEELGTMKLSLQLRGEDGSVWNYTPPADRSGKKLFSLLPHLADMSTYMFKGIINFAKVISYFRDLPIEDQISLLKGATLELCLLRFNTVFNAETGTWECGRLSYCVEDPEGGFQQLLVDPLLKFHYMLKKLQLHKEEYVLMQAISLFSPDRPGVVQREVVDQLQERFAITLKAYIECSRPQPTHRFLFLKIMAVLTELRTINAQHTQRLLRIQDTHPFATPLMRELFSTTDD

[3] = tested on: p-glycoprotein expression in LS-180 cells; experiment: Western blot analysis of Pgp expression; assay type: cell-based
Procedure: Protein was measured employing Bio-Rad protein assay kit using bovine serum albumin as standard. Proteins aliquots (70 μg) were resolved on SDS-PAGE and then electro transferred to PVDF membrane overnight at 4° C. at 30V. Nonspecific binding was blocked by incubation with 5% non-fat milk in Tris-buffered saline containing 0.1% Tween-20 (TBST) for 1 h at room temperature. The blots were probed with anti-Pgp antibody for 4 h and washed three times with TBST. Blot was then incubated with horseradish peroxidase conjugated antimouse secondary antibody for 1 h, washed again three times with TBST and signals detected using ECL plus chemiluminescence's kit on BioRad ChemiDoc XRS system.

| SMILES | solubility ([1]; water, 25±1° C., read-out: Solubility, Water) | solubility ([1]; phosphate buffer saline (PBS), aqueous buffer, read-out: Solubility, PBS) | solubility ([1]; simulated gastric fluid (SGF), simulated gastric fluid, read-out: Solubility, SGF) | solubility ([1]; simulated intestinal fluid (SIF), fassgf or other biorelevant, read-out: Solubility, SIF) | IC50 (HMG-Co A reductase) | CYP3A4 protein levels (CYP3A4) | activation of mouse PXR (mouse PXR) | activation of rat PXR (rat PXR) | EC50 [2] | EC50 (rabbit PXR) | Solubility, PBS ([1]; phosphate buffer saline (PBS)) | Solubility, SGF ([1]; simulated gastric fluid (SGF)) | Solubility, SIF ([1]; simulated intestinal fluid (SIF)) | solubility in words ([1]; water and biological fluids) | Solubility, Water ([1]; water, 25±1° C.) | p-glycoprotein expression (Western blot) [3] | Pgp induction as decrease in % intracellular levels of rhodamine 123 ([2]; LS-180 cells, test compounds 100 nM, 48 h) | fold difference of EC50 versus SR12813 (1a) ([2]; Pgp induction EC50, LS180 cells) |
| --- | --- | --- | --- | --- | --- | --- | --- | --- | --- | --- | --- | --- | --- | --- | --- | --- | --- | --- |
| CCOP(=O)(OCC)C(=Cc1cc(C(C)(C)C)c(O)c(C(C)(C)C)c1)P(=O)(OCC)OCC [Compound 1a] | 200 µg/mL (≈ 396 µM) | 200 µg/mL (≈ 396 µM) | 200 µg/mL (≈ 396 µM) | 200 µg/mL (≈ 396 µM) | 850 nM | increase CYP3A4 protein levels | very weak activator | very weak activator | 2.04 nM | ~700 nM |  |  |  |  |  |  |  |  |
| CCOP(=O)(OCC)C(=Cc1c2ccccc2cc2ccccc12)P(=O)(OCC)OCC [Compound 1l, Tetraethyl 2-(anthracene-10-yl) ethene-1,1-diyldiphosphonate] |  |  |  |  |  |  |  |  | 0.9 nM |  | >1500 µg/mL | >1500 µg/mL | >1500 µg/mL | optimal solubility | 400 µg/mL (≈ 840 µM) | induces p-glycoprotein expression | decreased; also recorded: promising induction of p-glycoprotein | 2 fold |
